Results taken from publication PMC11251039, “Harnessing cholesterol uptake of malaria parasites for therapeutic applications” (EMBO Molecular Medicine, 2024).
Where “and” joins values, the source holds several entries; their conditions need not be identical. Equal entries are not always repeated.

Experiments:
[1] = test system: asexual P. falciparum 3D7 wild-type parasites; experiment: P. falciparum asexual growth inhibition assay (SYBR Safe DNA replication); type: cell-based, Plasmodium falciparum; conditions: Plasmodium falciparum; 72 h, 3D7 (Susceptible); read-out: IC50, P. falciparum asexual growth inhibition
How it was run: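 Sorbitol-synchronised ring-stage cultures at 1% parasitaemia and 1% haematocrit were exposed to 2-fold compound dilutions at 37 °C under microaerophilic conditions for 24, 48 or 72 h. Growth was read by SYBR Safe fluorescence of freeze-thaw lysates, with 200 nM chloroquine or artesunate defining background.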

[2] = test system: asexual P. falciparum CAM3.II (Resistant); experiment: P. falciparum asexual growth inhibition assay, resistant strain; type: cell-based; conditions: Plasmodium falciparum; 72 h, CAM3.II (Resistant); read-out: IC50, P. falciparum asexual growth inhibition
Protocol: (§1) P. falciparum asexual parasite assays commenced with ring-stage parasites at 1% parasitaemia and 1% haematocrit. 200 nM chloroquine (Sigma C6628) or artesunate (Sigma A3731) was used as a no-growth control. DNA replication (indicating growth) was measured at the specified time using SYBR Safe DNA Gel Stain (Invitrogen 33102) and a fluorescence microplate reader (Smilkstein et al, [2004]; Spry et al, [2013]).
(§2) Appendix Fraser/Curtis et al.
(§3) Growth and Viability Inhibition Assays:
(§4) Plasmodium falciparum Growth Inhibition Assays:
(§5) P. falciparum parasites were maintained under routine culture conditions in red blood cells and RPMI 1640-Hepes with Glutamax, supplemented with 10 mM D-glucose, 480 μM hypoxanthine, 20 μg/mL gentamicin, 0.375% (w/v) AlbuMAXTM II (Thermo Fisher 11021029), and 2.5% v/v heat-inactivated human serum (17). Cultures were maintained at 37 °C […]
(§6) Growth inhibition was investigated according to methods described by Smilkstein et al. (19) with modifications by Spry et al. (20). […] 200 nM chloroquine (Sigma C6628) or artesunate (Sigma A3731) was used as a positive control to determine background fluorescence. The parasitaemia of a culture containing predominantly ring stage parasites was counted by Giemsa smear. […] Fluorescence was detected at 490 nm excitation/ 520 nm emission on a FLUOstar Optima fluorescence plate reader (BMG Labtech).

[3] = test system: asexual P. falciparum CAM3.IIREV (Susceptible); experiment: P. falciparum asexual growth inhibition assay, revertant strain; type: cell-based; conditions: Plasmodium falciparum, 72 h, read-out: IC50, P. falciparum asexual growth inhibition
Protocol: as §1, §2, §3, §4, §5, §6

[4] = test system: P. falciparum CAM3.II ring stages (0–3 h post invasion); experiment: Plasmodium falciparum ring stage survival assay, resistant strain; type: cell-based
Protocol: (§7) Following tight synchronisation using sorbitol and Percoll® floatation, ring stage CAM3.II and CAM3.IIREV parasites (0–3 h post invasion) at 1% parasitaemia and 2% haematocrit were incubated with 700 nM of compounds or solvent-only controls for exactly 6 h, before removing the drug, thoroughly washing in RPMI with HEPES, and returning to culture conditions for a further 66 h. Some cells were treated with 700 nM artesunate for 72 h as a no-growth control. DNA replication (indicating growth) was measured at the specified time using SYBR Safe DNA Stain. Microscope slide smears of each condition were stained with 10% v/v Giemsa and examined under a light microscope (×1000 magnification); with ‘viable’ (morphologically normal) and ‘non-viable’ (morphologically aberrant; vacuolated or pyknotic) parasites distinguished according to standard protocol (Witkowski et al, [2013]). Images were captured using a Leica ICC50 camera, with a resolution of 76 nm per pixel, and cropped from larger images using Fiji ImageJ.
as §2
(§8) Cells were detached from a flask using 0.25% Trypsin with 0.2 g/L EDTA (Sigma T4049) and washed with culture media containing no phenol red. Cells were incubated with a serial dilution of each compound, or media/DMSO alone. The protein synthesis inhibitor cycloheximide (Sigma 01810) at 10 µg/mL was used as a positive control to determine background absorbance. 5,000 cells were seeded in each well. After 96 hours, 0.45 mg/mL methylthiazolyldiphenyl-tetrazolium bromide (MTT; Sigma M2128) was added and incubated for a further two hours, before mixing 1.1:1 with 10% w/v sodium dodecyl sulfate (SDS) to solubilise crystals and freezing the plate at -18 °C to stop the assay. Plates were defrosted at room temperature and absorbance was read at 570 nm in an Infinite M1000 pro plate reader […]
(§9) Plasmodium falciparum Ring Stage Survival Assay
(§10) Ring stage survival assays were conducted according to standard protocols with some modifications (27, 28). CAM3.11 and CAM3.11REV parasites were sorbitol synchronised twice, 12 hours apart, and then incubated for a further 30 hours until the majority of the parasites were mature schizonts (with clearly separated nuclei). Pelleted RBCs were incubated at 37 °C with heparinised RPMI for 15 minutes, and then centrifuged over 75% Percoll® in PBS for 15 minutes at 1,000 g. Mature schizonts were collected, washed with warm RPMI, and cultured for exactly three hours with fresh uRBCs and culture media. After 3 hours, the cultures were sorbitol synchronised and incubated in duplicate with 700 nM of artesunate, PAYb076a, GGA5, HJB8a53, a DMSO solvent-only control or media alone for exactly six hours, before removing the drug, washing in RPMI, and returning to culture conditions. Samples of each cell suspension were transferred to a -18 °C freezer at the start of the assay (time = 0) or treated for the entire 72 hours with 700 nM artesunate to determine background fluorescence under no-growth conditions. After a further 66 hours of incubation (totalling 72 hours), cells were […]
(§11) resuspended, and a sample from each well was transferred to a fresh plate and frozen at -18 °C.
(§12) Microscope slide smears were made using the remaining cells and stained with 10% v/v Giemsa. Plates were thawed and SYBR Safe DNA Gel Stain (final concentration 1/10,000) diluted in lysis buffer (as above) was added for DNA detection at 490 nm excitation / 520 nm emission on a FLUOstar Optima fluorescence plate reader. Parasite proliferation and viability were also assessed using Giemsa-stained smears examined under a light microscope (1,000× magnification); with ‘viable’ and ‘non-viable’ (vacuolated or pyknotic) parasites distinguished according to standard protocol. Images were captured using a Leica ICC50 camera, with a resolution of 76 nm per pixel.
(§13) Growth inhibition data were normalised by subtracting background fluorescence, […]

[5] = test system: P. falciparum CAM3.IIREV ring stages (0–3 h post invasion); experiment: Plasmodium falciparum ring stage survival assay, susceptible revertant strain; type: cell-based
Protocol: as §7, §2, §8, §9, §10, §11, §12, §13

[6] = set-up: method as in Morris et al, 2011; conditions: ref Morris et al, 2011; cited from earlier work

C[C@H]1[C@H](OC(=O)CCC(=O)O)O[C@@H]2O[C@@]3(C)CC[C@H]4[C@H](C)CC[C@@H]1[C@@]24OO3 [Artesunate, artesunate, reference compound]
IC50 [1]: 6.7 nM | IC50 [2]: 6.7 nM | IC50 [3]: 5.7 nM | Proportion of resistant parasites surviving treatment (DNA replication) ([4]; 700 nM, 6 h treatment, 66 h further growth, CAM3.II): ~ 30% | Parasite morphology in Giemsa-stained smears ([4]; 700 nM, 6 h treatment, 66 h further growth, CAM3.II resistant): a combination of morphologically normal parasites (green arrows) and morphologically aberrant pyknotic or vacuolated forms | Ring stage survival, individual data points (Figure 4C) ([4]; CAM3.11, replicate experiments): 35.31 and 54.58 and 24.97 and 17.6 | Parasite morphology in Giemsa-stained smears ([5]; 700 nM, 6 h treatment, 66 h further growth, CAM3.IIREV susceptible): only morphologically aberrant parasites were present | Ring stage survival, individual data points (Figure 4C) ([5]; CAM3.11REV, replicate experiments): -6.969 and -6.239 and -6.353 and -8.044 | Half-life in blood [6]: 30 to 90 min
